Experimental data as given in ChEMBL document CHEMBL1201862, “PubChem BioAssay data set” (2004).
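1) Cells in 96-well plates. 2) Compound, 48 h, 5 concentrations. 3) Linear interpolation between surrounding doses. 4) Unreached endpoint = highest concentration. GI50 is the concentration that inhibits growth by half.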 The source made the active and inactive calls. Cut-off read from the data, not from the text of the source: active = GI50 up to about 1.1 µM and inactive = higher.

Experiments:
Assay in all cases: NCI anticancer screen, dose series, 48 h
786-0 = test system: 786-0
A498 = test system: A498
A549 = test system: A549
ACHN = test system: ACHN
CAKI-1 = test system: CAKI-1
CCRF-CEM = test system: CCRF-CEM
COLO 205 = test system: COLO 205
DLD-1 = test system: DLD-1
DMS-114 = test system: DMS-114
DMS-273 = test system: DMS-273
EKVX = test system: EKVX
HCC 2998 = test system: HCC 2998
HCT-116 = test system: HCT-116
HCT-15 = test system: HCT-15
HOP-18 = test system: HOP-18
HOP-62 = test system: HOP-62
HOP-92 = test system: HOP-92
HT-29 = test system: HT-29
IGROV-1 = test system: IGROV-1
K562 = test system: K562
KM-20L2 = test system: KM-20L2
KM12 = test system: KM12
LOX IMVI = test system: LOX IMVI
LXFL 529 = test system: LXFL 529
M14 = test system: M14
M19-MEL = test system: M19-MEL
MOLT-4 = test system: MOLT-4
Malme-3M = test system: Malme-3M
NCI-H226 = test system: NCI-H226
NCI-H23 = test system: NCI-H23
NCI-H460 = test system: NCI-H460
NCI-H522 = test system: NCI-H522
OVCAR-3 = test system: OVCAR-3
OVCAR-4 = test system: OVCAR-4
OVCAR-5 = test system: OVCAR-5
OVCAR-8 = test system: OVCAR-8
RXF 393 = test system: RXF 393
SF-268 = test system: SF-268
SF-295 = test system: SF-295
SF-539 = test system: SF-539
SK-MEL-28 = test system: SK-MEL-28
SK-MEL-2 = test system: SK-MEL-2
SK-MEL-5 = test system: SK-MEL-5
SK-OV-3 = test system: SK-OV-3
SN12C = test system: SN12C
SNB-19 = test system: SNB-19
SNB-75 = test system: SNB-75
SNB-78 = test system: SNB-78
SW-620 = test system: SW-620
TK-10 = test system: TK-10
U-251 = test system: U-251
UACC-257 = test system: UACC-257
UACC-62 = test system: UACC-62
UO-31 = test system: UO-31
XF498 = test system: XF498

With `S=C(N/N=C/c1ccco1)NC12CC3CC(CC(C3)C1)C2` the GI50 (786-0) was 62.7 µM (inactive), the GI50 (A498) was > 100 µM (inactive) and the GI50 (A549) was > 100 µM (inactive). For the same compound, the GI50 (ACHN) was > 100 µM (inactive), the GI50 (CAKI-1) was > 100 µM (inactive) and the GI50 (CCRF-CEM) was 54.2 µM (inactive). For the same compound, the GI50 (COLO 205) was 15.3 µM (inactive), the GI50 (DLD-1) was > 100 µM (inactive) and the GI50 (DMS-114) was 37.3 µM (inactive). For the same compound, the GI50 (DMS-273) was 6.05 µM (inactive), the GI50 (EKVX) was > 100 µM (inactive) and the GI50 (HCC 2998) was 74.8 µM (inactive). The GI50 (HCT-116) was > 100 µM (inactive), the GI50 (HCT-15) was 47.4 µM and the GI50 (HOP-18) was > 100 µM (inactive). The GI50 (HOP-62) was > 100 µM (inactive), the GI50 (HOP-92) was 47 µM (inactive) and the GI50 (HT-29) was 31.4 µM (inactive). The GI50 (IGROV-1) was > 100 µM (inactive), the GI50 (K562) was 43.8 µM (inactive) and the GI50 (KM-20L2) was 42.8 µM (inactive). For the same compound, the GI50 (KM12) was > 100 µM (inactive), the GI50 (LOX IMVI) was 86.5 µM (inactive) and the GI50 (LXFL 529) was 52.2 µM (inactive). For the same compound, the GI50 (M14) was > 100 µM (inactive), the GI50 (M19-MEL) was > 100 µM (inactive) and the GI50 (MOLT-4) was 39.4 µM (inactive). The GI50 (Malme-3M) was > 100 µM (inactive), the GI50 (NCI-H226) was > 100 µM (inactive) and the GI50 (NCI-H23) was > 100 µM (inactive). For the same compound, the GI50 (NCI-H460) was 66.2 µM (inactive), the GI50 (NCI-H522) was 36.7 µM (inactive) and the GI50 (OVCAR-3) was 84.1 µM (inactive). The GI50 (OVCAR-4) was 65.3 µM (inactive), the GI50 (OVCAR-5) was > 100 µM (inactive) and the GI50 (OVCAR-8) was > 100 µM (inactive). The GI50 (RXF 393) was > 100 µM (inactive), the GI50 (SF-268) was > 100 µM (inactive) and the GI50 (SF-295) was > 100 µM (inactive). For the same compound, the GI50 (SF-539) was > 100 µM (inactive), the GI50 (SK-MEL-28) was > 100 µM (inactive) and the GI50 (SK-MEL-2) was > 100 µM (inactive). For the same compound, the GI50 (SK-MEL-5) was 73.8 µM (inactive), the GI50 (SK-OV-3) was > 100 µM (inactive) and the GI50 (SN12C) was > 100 µM (inactive). The GI50 (SNB-19) was > 100 µM (inactive), the GI50 (SNB-75) was 83.8 µM (inactive) and the GI50 (SNB-78) was > 100 µM (inactive). For the same compound, the GI50 (SW-620) was > 100 µM (inactive), the GI50 (TK-10) was 49.5 µM (inactive) and the GI50 (U-251) was 73.8 µM (inactive). For the same compound, the GI50 (UACC-257) was 32.2 µM (inactive), the GI50 (UACC-62) was 29.9 µM (inactive) and the GI50 (UO-31) was > 100 µM (inactive). The GI50 (XF498) was > 100 µM (inactive).
